Publication PMC9945865, “Anticancer evaluation of new organometallic ruthenium(II) flavone complexes” (RSC Medicinal Chemistry, 2022)

How the values were obtained:
c-myc i-motif DNA [1] = assay: I-motif DNA UV melting (thermal stability); assay type: binding, human; settings: for Tm: c-myc i-motif with flavone at 1 : 1 ratio, 295 nm, free DNA 45 °C; for ΔTm: c-myc i-motif, 1 : 1 ratio, ΔTm = Tm (DNA-flavone) − Tm (DNA)
Source text: (§1) The effect of this set of flavones on VEGF and c-myc was further evaluated via thermal stability measurements. Stabilizing/destabilizing the promotor i-motif structures is often reported to regulate expression of the corresponding genes, which for VEGF and c-myc could have detrimental effects on cancer growth and propagation.[48] As observed in Fig. 9, effects of the test flavones on the thermal stability of the VEGF and c-myc i-motif sequences were generally marginal and in agreement with λmax chromophoric shifts. […] Compound 1 destabilized VEGF i-motif in contrast to stabilizing the c-myc one. This mirrored the trend of a higher chromophoric shift observed for flavone 1 with VEGF i-motif sequence that also differed in pattern (hypochromic) from the shift witnessed with the c-myc sequence (hyperchromic). These findings could indicate higher selectivity of the 4-oxo derivative (1) towards VEGF i-motif based on an intercalative binding mode especially that hypochromic shifts are reported with DNA intercalation.[49,50] […] In this regard, the highest i-motif activity seen for the parent flavonoids was switched from VEGF to c-myc with compound 1 and vice versa with compound 2 upon Ru chelation. This emphasizes the key role of the interplay between the substitution at position 4 and metal complexation on the interaction with biological targets.
(§2) UV-visible absorbance measurements and DNA UV melting studies were performed on a Cary 300 C (Varian USA) UV-visible spectrophotometer. VEGF and c-myc i-motif DNA (5′-3′ sequences ([…]) and ([…]), respectively) were purchased from Sigma-Aldrich (Gillingham, UK) and used without further purification. Na cacodylate buffer (20 mM, pH 5.5) was used for both i-motifs. DNA concentrations were determined by measuring the absorbance at 260 nm after melting using the molar extinction coefficient supplied by the manufacturer. VEGF and c-myc i-motifs were prepared for experiments by diluting with buffer solution, annealed with or without the flavonoid at 95 °C for 5 min then gently cooled to room temperature. The stock solutions of the test compounds (20 mM) were prepared in 100% sterile DMSO. These stocks were then appropriately diluted with HPLC grade water and DMSO levels were maintained below 0.1% in the test concentrations.
(§3) UV-visible absorbance measurements and UV melting studies of either free i-motifs (VEGF or c-myc), free flavone (1, 1Ru, 2 or 2Ru) or both i-motif DNA and flavone (2 μM: 2 μM) were recorded using 1.0 cm matched quartz cuvettes. First spectra were recorded in the range of 200–500 nm to determine the relevant wavelength range were no peaks were observed above 320 nm. […] UV-visible absorbance was measured at 25 °C while melting curves were collected at a heating rate of 1 °C min^−1 from 20 to 90 °C. Tm was calculated by non-linear fitting of the sigmoidal curve obtained at 295 nm.

VEGF i-motif DNA [2] = assay: I-motif DNA UV melting (thermal stability); assay type: binding, human; settings: for Tm: VEGF i-motif with flavone at 1 : 1 ratio, 295 nm, free DNA 46 °C; for ΔTm: ΔTm = Tm (DNA-flavone) − Tm (DNA)
Source text: as §1, §2, §3

MDA-MB-231 = assay: Wound healing (migration) 24 h scratch assay; assay type: cell-based, human; settings: for rise in compound 2's migration inhibition activity upon metal coordination: p < 0.05
Method: (§4) Malignant cell migration is essential for tumour invasion and metastasis.[1] Thus, the ability of the synthetic flavones (1 and 2) and their Ru(II) metal complexes (1Ru and 2Ru) to inhibit the migration of breast cancer cells (MCF-7 and MDA-MB-231) was assessed by an in vitro 24 h scratch assay. Low, sub-cytotoxic concentrations of 1, 10 and 20 μM were used in this evaluation.
(§5) MCF-7 or MDA-MB-231 cells were seeded in 12-well plates at 2 × 10^5 or 1 × 10^5 cells per mL, respectively, and cultured until 70–80% confluency. Afterwards, they were serum-starved (0% serum) for 24 h to inactivate the cell proliferation. A scratch was performed on the cell monolayers using a 200 μL pipette tip. Cells were then washed twice with PBS and treated with complete medium and one of the synthesized derivatives at 1, 10 or 20 μM. […] Images of the scratches were taken immediately after performing the scratch (t = 0 h) and at 24 h (t = 24 h). The area not covered by the cells was quantified using ImageJ software. % of wound closure was calculated using the following equation:100 × ((Area of scratch at t0 − Area of scratch at t24)/Area of scratch at t0)

MCF-7 = assay: Wound healing (migration) 24 h scratch assay; assay type: cell-based, human
Method: as §4, §5

c-myc i-motif DNA [3] = assay: I-motif DNA binding, UV-visible absorbance; design: species or system human; settings: DNA : flavonoid 2 μM : 2 μM, pH 5.5, 25 °C
Source text: (§6) I-motifs are four stranded antiparallel cytosine rich DNA sequences capable of forming at telomere and promotor regions of genomic DNA.[41,42] […] Due to the presence of potential i-motif forming sequences in 69% of promoter regions in human oncogenes, they are postulated to play a key role in oncogene expression regulation.[44] VEGF and c-myc i-motif sequences are prevalent in oncogene promotor regions in many cancers including breast cancer and as such their ligands have potential anticancer roles.[45] The natural flavonol, fisetin, is reported to specifically bind to VEGF i-motif DNA and regulate its function by stabilizing its hairpin structure.[31] […] In continuation of our investigation of the effects of Ru metal complexation on the different biological activities of flavonoids, interactions with VEGF and c-myc i-motif DNA were studied using UV-vis spectroscopic techniques. […] However, 2Ru's addition led to a 1 nm hypsochromic shift of VEGF i-motif absorbance maximum from 272 to 271 nm. On the other hand, addition of the 4-oxo flavone (1) and its Ru complex (1Ru) led to minor changes in λmax of both sequences that was hypochromic (5% and 3%) with VEGF and hyperchromic (2% and 5%) in case of c-myc (Fig. 8).
as §2, §3

VEGF i-motif DNA [4] = assay: I-motif DNA binding, UV-visible absorbance; design: species or system human
Source text: as §6, §2, §3

[5] = DNA : flavonoid 2 μM : 2 μM, pH 5.5, 25 °C

For `Cc1ccc(C(C)C)cc1.O=c1cc(-c2ccc(Cl)cc2)oc2cc(O)cc([O-])c12.[Cl-].[Ru+2]` [1Ru, chlorido [(5-oxo-κO)-7-hydroxy-2-(4′-chlorophenyl)-4H-chromen-4-onato-κO] (η^6-p-cymene)ruthenium(II)], the Tm (c-myc i-motif DNA [1]) was 48 °C, the ΔTm (c-myc i-motif DNA [1]) was 3 °C and the Tm (VEGF i-motif DNA [2]) was 47 °C. For the same compound, the ΔTm (VEGF i-motif DNA [2]; VEGF i-motif, 1 : 1 ratio) was 1 °C, the “effect on the migration” value (MDA-MB-231; MDA-MB-231, 1, 10, 20 μM, 24 h) was “neither showed any effect” and the migration inhibition (MCF-7; MCF-7, 1 μM) was 50%. The migration inhibition (MCF-7; MCF-7, 10 μM) was 42%, the migration inhibition (MCF-7; MCF-7, 20 μM) was 41% and the “hyperchromic shift (increase) at absorbance maximum λmax” value (“hyperchromic shift (increase)” for short) (c-myc i-motif DNA [3]) was 5%. For the same compound, the “hypochromic change at λmax” value (VEGF i-motif DNA [4]; [5]) was 3%.
`Cc1ccc(C(C)C)cc1.[Cl-].[O-]c1cc(O)cc2oc(-c3ccc(Cl)cc3)cc(=S)c12.[Ru+2]` [2Ru, chlorido [(5-oxo-κO)-7-hydroxy-2-(4′-chlorophenyl)-4H-chromen-4-thionato-κO] (η^6-p-cymene)ruthenium(II)] showed a Tm (c-myc i-motif DNA [1]) of 44 °C, a ΔTm (c-myc i-motif DNA [1]) of −1 °C and a Tm (VEGF i-motif DNA [2]) of 42 °C. The “decrease in the i-motif's transition temperature (Tm)” value (VEGF i-motif DNA [2]; VEGF i-motif, 1 : 1 ratio) was 4 °C, the ΔTm (VEGF i-motif DNA [2]; VEGF i-motif, 1 : 1 ratio) was −4 °C and the migration inhibition (MDA-MB-231; MDA-MB-231, 1 μM, 24 h) was 47%. The “rise in compound 2's migration inhibition activity upon metal coordination” value (MDA-MB-231; MDA-MB-231, 1 μM) was 4%, the migration inhibition (MDA-MB-231; MDA-MB-231, 10 μM, 24 h) was 44% and the migration inhibition (MDA-MB-231; MDA-MB-231, 20 μM, 24 h) was 36%. For the same compound, the “rise in compound 2's migration inhibition activity upon metal coordination” value (MDA-MB-231; MDA-MB-231, 20 μM) was 7%, the migration inhibition (MCF-7; MCF-7, 1 μM) was 52% and the migration inhibition (MCF-7; MCF-7, 10 μM) was 49%. For the same compound, the migration inhibition (MCF-7; MCF-7, 20 μM) was 55%, the “hyperchromic shift (increase)” value (c-myc i-motif DNA [3]) was 8% and the “hyperchromic shift (increase)” value (VEGF i-motif DNA [4]; [5]) was 2%. For the same compound, the “hypsochromic shift of absorbance maximum” value (VEGF i-motif DNA [4]; from 272 to 271 nm, 1 : 1 ratio) was 1 nm.
